# Data as given in patent US8227498B2, “Inhibitors of glutaminyl cyclase” (Probiodrug AG, priority 2007, dated 2012).
# Biological target: glutaminyl cyclase (QC) (Homo sapiens, UniProt Q16769)
# Assay: QC inhibitor assay (fluorometric/spectrophotometric QC activity assays with inhibitory compound added)
# Protocol: All measurements were performed with a BioAssay Reader HTS-7000Plus for microplates (Perkin Elmer) at 30° C. QC activity was evaluated fluorometrically using H-Gln-βNA. The samples consisted of 0.2 mM fluorogenic substrate, 0.25 U pyroglutamyl aminopeptidase (Unizyme, Hørsholm, Denmark) in 0.2 M Tris/HCl, pH 8.0 containing 20 mM EDTA and an appropriately diluted aliquot of QC in a final volume of 250 μl. Excitation/emission wavelengths were 320/410 nm. The assay reactions were initiated by addition of glutaminyl cyclase. QC activity was determined from a standard curve of β-naphthylamine under assay conditions. One unit is defined as the amount of QC catalyzing the formation of 1 μmol pGlu-MNA from H-Gln-βNA per minute under the described conditions.
# In a second fluorometric assay, QC was activity determined using H-Gln-AMC as substrate. Reactions were carried out at 30° C. utilizing the NOVOStar reader for microplates (BMG labtechnologies). The samples consisted of varying concentrations of the fluorogenic substrate, 0.1 U pyroglutamyl aminopeptidase (Qiagen) in 0.05 M Tris/HCl, pH 8.0 containing 5 mM EDTA and an appropriately diluted aliquot of QC in a final volume of 250 μl. Excitation/emission wavelengths were 380/460 nm. The assay reactions were initiated by addition of glutaminyl cyclase. […] The kinetic data were evaluated using GraFit sofware.
# This novel assay was used to determine the kinetic parameters for most of the QC substrates. […] Samples consisted of the respective QC substrate, 0.3 mM NADH, 14 mM α-Ketoglutaric acid and 30 U/ml glutamate dehydrogenase in a final volume of 250 μl.
# The initial velocities were evaluated and the enzymatic activity was determined from a standard curve of ammonia under assay conditions. All samples were measured at 30° C., using either the [sequence]luor Plus or the Sunrise (both from TECAN) reader for microplates. Kinetic data was evaluated using GraFit software.
# For inhibitor testing, the sample composition was the same as described above, except of the putative inhibitory compound added. For a rapid test of QC-inhibition, samples contained 4 mM of the respective inhibitor and a substrate concentration at 1 KM. For detailed investigations of the inhibition and determination of Ki-values, influence of the inhibitor on the auxiliary enzymes was investigated first. […] The inhibitory constant was evaluated by fitting the set of progress curves to the general equation for competitive inhibition using GraFit software.
# Chain of glutaminyl cyclase (QC) (Q16769 29-361): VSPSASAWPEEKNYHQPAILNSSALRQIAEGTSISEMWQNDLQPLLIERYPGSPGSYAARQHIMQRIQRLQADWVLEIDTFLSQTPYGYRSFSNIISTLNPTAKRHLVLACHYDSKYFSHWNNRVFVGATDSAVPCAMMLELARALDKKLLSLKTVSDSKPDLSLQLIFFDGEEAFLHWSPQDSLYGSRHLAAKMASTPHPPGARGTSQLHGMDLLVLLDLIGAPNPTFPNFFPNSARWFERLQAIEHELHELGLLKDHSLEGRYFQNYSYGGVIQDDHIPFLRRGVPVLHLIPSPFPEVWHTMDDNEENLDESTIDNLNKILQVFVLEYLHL
Compound,IC50,Ki
"CCc1ccc(N/C(=N/C#N)NCCCn2cnc(C)c2)cc1 [Example 22, 2-cyano(4-ethylphenyl)-3-(3-(4-methyl-1H-imidazol-1-yl)propyl)guanidine]",13.9 µM,2.37 µM
"Cc1cn(CCCN/C(=N/C#N)Nc2ccc(Cl)c(Cl)c2)cn1 [Example 27, (3,4-dichlorophenyl)-2-cyano-3-(3-(4-methyl-1H-imidazol-1-yl)propyl)guanidine]",17.1 µM,2.6 µM
"COc1ccc(N/C(=N/C#N)NCCCn2cncc2C)cc1 [Example 15, 2-cyano(4-methoxyphenyl)-3-(3-(5-methyl-1H-imidazol-1-yl)propyl)guanidine]",0.79 µM,0.074 µM
"COc1cc(N/C(=N\C#N)NCCCn2cnc(C)c2)cc(OC)c1 [Example 18, 2-cyano(3,5-dimethoxyphenyl)-3-(3-(4-methyl-1H-imidazol-1-yl)propyl)guanidine]",12.3 µM,–
"Cc1cn(CCCN/C(=N\C#N)Nc2cccc3ccccc23)cn1 [Example 23, 2-cyano(3-(4-methyl-1H-imidazol-1-yl)propyl)-3-(naphthalen-1-yl)guanidine]",13.8 µM,1.69 µM
"CCc1ccc(N/C(=N/C#N)NCCCn2cncc2C)cc1 [Example 1, 2-cyano(4-ethylphenyl)-3-(3-(5-methyl-1H-imidazol-1-yl)propyl)guanidine]",0.62 µM,0.17 µM
"Cc1cn(CCCN/C(=N/C#N)Nc2ccc(C#N)cc2)cn1 [Example 26, 2-cyano(4-cyanophenyl)-3-(3-(4-methyl-1H-imidazol-1-yl)propyl)guanidine]",30.1 µM,–
"Cc1cn(CCCN/C(=N/C#N)Nc2ccc3ccccc3c2)cn1 [Example 30, 2-cyano(3-(4-methyl-1H-imidazol-1-yl)propyl)-3-(naphthalen-2-yl)guanidine]",12.4 µM,1.87 µM
"CCOc1ccc(N/C(=N\C#N)NCCCn2cncc2C)cc1 [Example 6, 2-cyano(4-ethoxyphenyl)-3-(3-(5-methyl-1H-imidazol-1-yl)propyl)guanidine]",1.09 µM,0.091 µM
"CCOc1ccc(N/C(=N\C#N)NCCCn2cnc(C)c2)cc1 [Example 17, 2-cyano(4-ethoxyphenyl)-3-(3-(4-methyl-1H-imidazol-1-yl)propyl)guanidine]",5.69 µM,1.33 µM
"Cc1cn(CCCN/C(=N/C#N)Nc2ccc(-c3ccccc3)cc2)cn1 [Example 29, 2-cyano-1-[3-(4-methyl-1H-imidazol-1-yl)propyl]-4-phenylbenzene-1-guanidine]",10.4 µM,1.58 µM
"Cc1cc(C)c(N/C(=N/C#N)NCCCn2cnc(C)c2)c(C)c1 [Example 20, 2-cyano(mesityl)-3-(3-(4-methyl-1H-imidazol-1-yl)propyl)guanidine]",8.5 µM,1.28 µM
"Cc1cncn1CCCN/C(=N\C#N)Nc1ccc2ccccc2c1 [Example 10, (3-(5-methyl-1H-imidazol-1-yl)propyl)-2-cyano-3-(naphthalen-2-yl)guanidine]",1.09 µM,0.094 µM
"Cc1cn(CCCN/C(=N\C#N)Nc2ccc(C(C)C)cc2)cn1 [Example 21, 2-cyano(4-isopropylphenyl)-3-(3-(4-methyl-1H-imidazol-1-yl)propyl)guanidine]",14.9 µM,2.31 µM
"Cc1cncn1CCCN/C(=N/C#N)Nc1ccc(C#N)cc1 [Example 4, 2-cyano(4-cyanophenyl)-3-(3-(5-methyl-1H-imidazol-1-yl)propyl)guanidine]",1.05 µM,0.186 µM
"Cc1cncn1CCCN/C(=N\C#N)Nc1cccc2ccccc12 [Example 11, (3-(5-methyl-1H-imidazol-1-yl)propyl)-2-cyano-3-(naphthalen-1-yl)guanidine]",0.61 µM,0.103 µM
"COc1ccc(N/C(=N\C#N)NCCCn2cnc(C)c2)cc1 [Example 28, 2-cyano(4-methoxyphenyl)-3-(3-(4-methyl-1H-imidazol-1-yl)propyl)guanidine]",14.4 µM,2.03 µM
"COc1cc(N/C(=N/C#N)NCCCn2cncc2C)cc(OC)c1 [Example 16, 2-cyano(3,5-dimethoxyphenyl)-3-(3-(5-methyl-1H-imidazol-1-yl)propyl)guanidine]",0.726 µM,0.125 µM
"Cc1cn(CCCN/C(=N/C#N)Nc2ccc3nsnc3c2)cn1 [Example 24, (benzo[c][1,2,5]thiadiazol-6-yl)-2-cyano-3-(3-(4-methyl-1H-imidazol-1-yl)propyl)guanidine]",12.2 µM,2.21 µM
"Cc1cncn1CCCN/C(=N\C#N)Nc1ccc2c(c1)OCO2 [Example 14, (benzo[d][1,3]dioxol-6-yl)-2-cyano-3-(3-(5-methyl-1H-imidazol-1-yl)propyl)guanidine]",0.59 µM,0.11 µM
"Cc1cncn1CCCN/C(=N\C#N)Nc1ccc2nsnc2c1 [Example 12, (3-(5-methyl-1H-imidazol-1-yl)propyl)-3-(benzo[c][1,2,5]thiadiazol-6-yl)-2-cyanoguanidine]",1.34 µM,0.132 µM
Cc1cncn1CCCN/C(=N\C#N)Nc1ccc(C(C)C)cc1 [Example 2],0.55 µM,0.091 µM
"Cc1cc(C)c(N/C(=N/C#N)NCCCn2cncc2C)c(C)c1 [Example 8, (3-(5-methyl-1H-imidazol-1-yl)propyl)-2-cyano-3-mesitylguanidine]",0.624 µM,0.106 µM
